Measurements published in ChEMBL document CHEMBL6177930, “2-(4-Bromobenzyl) tethered 4-amino aryl/alkyl-5,6,7,8-tetrahydrobenzo[4,5]thieno[2,3-d]pyrimidines: design, synthesis, anticancer assessment via dual topoisomerase-I/II inhibition, and in silico studies” (RSC Med Chem, 2025).

Target: T1, Prostaglandin G/H synthase 1 (Ovis aries) (UniProt P05979)
T1 sequence (whole entry): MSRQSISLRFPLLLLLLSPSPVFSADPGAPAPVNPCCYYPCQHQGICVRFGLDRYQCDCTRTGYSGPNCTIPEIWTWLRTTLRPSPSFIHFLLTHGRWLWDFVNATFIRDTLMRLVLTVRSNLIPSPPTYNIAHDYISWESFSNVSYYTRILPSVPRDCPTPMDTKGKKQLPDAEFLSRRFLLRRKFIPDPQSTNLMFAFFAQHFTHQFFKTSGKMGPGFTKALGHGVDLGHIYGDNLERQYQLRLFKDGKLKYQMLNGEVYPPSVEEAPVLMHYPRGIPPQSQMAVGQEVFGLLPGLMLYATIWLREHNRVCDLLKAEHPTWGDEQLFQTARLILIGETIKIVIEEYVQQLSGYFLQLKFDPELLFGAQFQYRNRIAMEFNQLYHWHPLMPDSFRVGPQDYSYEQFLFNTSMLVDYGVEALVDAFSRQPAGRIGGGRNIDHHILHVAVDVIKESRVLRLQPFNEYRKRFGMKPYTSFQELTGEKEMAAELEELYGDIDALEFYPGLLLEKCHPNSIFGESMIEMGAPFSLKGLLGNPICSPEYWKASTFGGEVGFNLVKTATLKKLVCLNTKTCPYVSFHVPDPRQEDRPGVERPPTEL
Assay: Inhibition of ovine COX-1 at 10 uM relative to control
Details: not given; call rule not given here

| inhibition [%] | Compound |
| --- | --- |
| 28.5 | Brc1ccc(Cc2nc(NCCN3CCNCC3)c3c4c(sc3n2)CCCC4)cc1 |

Tested on: HEK293
Assay: Antiproliferative activity against HEK293 cells assessed as inhibition of cell growth at 10 to 25 uM measured after 48 to 72 hrs by MTT assay
Assay type: toxicity, cell-based
Details: human, hek293, 25 µM; dose lower 10 µM, time lower 48 hrs, dose upper 25 µM, time upper 72 hrs

| Compound | Activity |
| --- | --- |
| Brc1ccc(Cc2nc(NCCN3CCNCC3)c3c4c(sc3n2)CCCC4)cc1 | Non-toxic |

Tested on: MDA-MB-231
Assay: Antiproliferative activity against human MDA-MB-231 cells assessed as inhibition of cell growth at 10 uM measured after 48 to 72 hrs by MTT assay relative to control
Assay type: functional
Details: time 48-72 hrs

| Compound | inhibition at 10 µM [%] |
| --- | --- |
| CNc1nc(Cc2ccc(Br)cc2)nc2sc3c(c12)CCCC3 | 1.09 |
| Brc1ccc(Cc2nc(-n3ccnc3)c3c4c(sc3n2)CCCC4)cc1 | 12.8 |
| CCN(CC)c1nc(Cc2ccc(Br)cc2)nc2sc3c(c12)CCCC3 | 1.91 |
| Brc1ccc(Cc2nc(N3CCCC3)c3c4c(sc3n2)CCCC4)cc1 | 8.72 |
| CCCNc1nc(Cc2ccc(Br)cc2)nc2sc3c(c12)CCCC3 | 3.11 |
| Nc1ccccc1CNc1nc(Cc2ccc(Br)cc2)nc2sc3c(c12)CCCC3 | 5.74 |
| NCCCNc1nc(Cc2ccc(Br)cc2)nc2sc3c(c12)CCCC3 | 1.12 |
| Brc1ccc(Cc2nc(NCc3ccccc3)c3c4c(sc3n2)CCCC4)cc1 | 4.99 |
| Fc1cc(CNc2nc(Cc3ccc(Br)cc3)nc3sc4c(c23)CCCC4)cc(F)c1F | 2.39 |
| Brc1ccc(Cc2nc(NCCN3CCNCC3)c3c4c(sc3n2)CCCC4)cc1 | 1.23 |

Target: T2, DNA topoisomerase 1 (Homo sapiens) (UniProt P11387)
T2 sequence (whole entry): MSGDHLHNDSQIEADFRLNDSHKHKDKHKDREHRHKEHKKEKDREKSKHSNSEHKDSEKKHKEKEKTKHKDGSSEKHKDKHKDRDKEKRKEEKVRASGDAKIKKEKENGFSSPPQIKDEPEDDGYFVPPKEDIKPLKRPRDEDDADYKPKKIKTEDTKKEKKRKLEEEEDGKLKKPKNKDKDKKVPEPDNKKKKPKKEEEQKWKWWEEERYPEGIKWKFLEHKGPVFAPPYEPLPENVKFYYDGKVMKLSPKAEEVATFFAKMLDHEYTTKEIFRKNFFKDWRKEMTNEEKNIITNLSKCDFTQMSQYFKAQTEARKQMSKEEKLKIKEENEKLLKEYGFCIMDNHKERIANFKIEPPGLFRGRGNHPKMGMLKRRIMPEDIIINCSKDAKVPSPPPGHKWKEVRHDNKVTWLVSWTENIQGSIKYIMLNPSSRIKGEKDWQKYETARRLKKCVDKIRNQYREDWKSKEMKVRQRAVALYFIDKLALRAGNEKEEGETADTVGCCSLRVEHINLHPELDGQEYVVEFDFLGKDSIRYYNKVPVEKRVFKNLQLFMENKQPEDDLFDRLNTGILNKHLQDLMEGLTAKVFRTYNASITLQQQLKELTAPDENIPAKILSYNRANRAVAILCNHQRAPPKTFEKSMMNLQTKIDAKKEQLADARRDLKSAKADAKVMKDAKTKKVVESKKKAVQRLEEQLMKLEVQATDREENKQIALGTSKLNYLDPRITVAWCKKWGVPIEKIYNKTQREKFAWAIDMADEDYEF
Assay: Inhibition of human topoisomerase-I extracted from baculovirus expression system using SC-DNA as substrate incubated for 30 mins by EtBr staining based agarose gel electrophoresis method
Details: not given

| Compound | inhibition |
| --- | --- |
| Brc1ccc(Cc2nc(NCCN3CCNCC3)c3c4c(sc3n2)CCCC4)cc1 | Active; Compound Showed Potent Inhibition Activity Than Camptothecin |

Tested on: FaDu
Assay: Antiproliferative activity against human FaDu cells assessed as inhibition of cell growth at 10 uM measured after 48 to 72 hrs by MTT assay relative to control
Assay type: functional
Details: time 48-72 hrs

| Compound | inhibition at 10 µM [%] |
| --- | --- |
| CNc1nc(Cc2ccc(Br)cc2)nc2sc3c(c12)CCCC3 | 23.4 |
| Brc1ccc(Cc2nc(-n3ccnc3)c3c4c(sc3n2)CCCC4)cc1 | 46.9 |
| CCN(CC)c1nc(Cc2ccc(Br)cc2)nc2sc3c(c12)CCCC3 | 34.2 |
| Brc1ccc(Cc2nc(N3CCCC3)c3c4c(sc3n2)CCCC4)cc1 | 49.2 |
| CCCNc1nc(Cc2ccc(Br)cc2)nc2sc3c(c12)CCCC3 | 56.2 |
| Nc1ccccc1CNc1nc(Cc2ccc(Br)cc2)nc2sc3c(c12)CCCC3 | 25.9 |
| NCCCNc1nc(Cc2ccc(Br)cc2)nc2sc3c(c12)CCCC3 | 54.1 |
| Brc1ccc(Cc2nc(NCc3ccccc3)c3c4c(sc3n2)CCCC4)cc1 | 24.3 |
| Fc1cc(CNc2nc(Cc3ccc(Br)cc3)nc3sc4c(c23)CCCC4)cc(F)c1F | 25.8 |
| Brc1ccc(Cc2nc(NCCN3CCNCC3)c3c4c(sc3n2)CCCC4)cc1 | 74.7 |

Target: DNA topoisomerase 2-alpha (Homo sapiens) (UniProt P11388)
Assay: Inhibition of human topoisomerase-II alpha assessed as reduction in decatenation activity using kinetoplast DNA as substrate incubated for 30 mins by EtBr staining based agarose gel electrophoresis method
Details: not given

Sequence of DNA topoisomerase 2-alpha (Homo sapiens) (P11388 whole entry): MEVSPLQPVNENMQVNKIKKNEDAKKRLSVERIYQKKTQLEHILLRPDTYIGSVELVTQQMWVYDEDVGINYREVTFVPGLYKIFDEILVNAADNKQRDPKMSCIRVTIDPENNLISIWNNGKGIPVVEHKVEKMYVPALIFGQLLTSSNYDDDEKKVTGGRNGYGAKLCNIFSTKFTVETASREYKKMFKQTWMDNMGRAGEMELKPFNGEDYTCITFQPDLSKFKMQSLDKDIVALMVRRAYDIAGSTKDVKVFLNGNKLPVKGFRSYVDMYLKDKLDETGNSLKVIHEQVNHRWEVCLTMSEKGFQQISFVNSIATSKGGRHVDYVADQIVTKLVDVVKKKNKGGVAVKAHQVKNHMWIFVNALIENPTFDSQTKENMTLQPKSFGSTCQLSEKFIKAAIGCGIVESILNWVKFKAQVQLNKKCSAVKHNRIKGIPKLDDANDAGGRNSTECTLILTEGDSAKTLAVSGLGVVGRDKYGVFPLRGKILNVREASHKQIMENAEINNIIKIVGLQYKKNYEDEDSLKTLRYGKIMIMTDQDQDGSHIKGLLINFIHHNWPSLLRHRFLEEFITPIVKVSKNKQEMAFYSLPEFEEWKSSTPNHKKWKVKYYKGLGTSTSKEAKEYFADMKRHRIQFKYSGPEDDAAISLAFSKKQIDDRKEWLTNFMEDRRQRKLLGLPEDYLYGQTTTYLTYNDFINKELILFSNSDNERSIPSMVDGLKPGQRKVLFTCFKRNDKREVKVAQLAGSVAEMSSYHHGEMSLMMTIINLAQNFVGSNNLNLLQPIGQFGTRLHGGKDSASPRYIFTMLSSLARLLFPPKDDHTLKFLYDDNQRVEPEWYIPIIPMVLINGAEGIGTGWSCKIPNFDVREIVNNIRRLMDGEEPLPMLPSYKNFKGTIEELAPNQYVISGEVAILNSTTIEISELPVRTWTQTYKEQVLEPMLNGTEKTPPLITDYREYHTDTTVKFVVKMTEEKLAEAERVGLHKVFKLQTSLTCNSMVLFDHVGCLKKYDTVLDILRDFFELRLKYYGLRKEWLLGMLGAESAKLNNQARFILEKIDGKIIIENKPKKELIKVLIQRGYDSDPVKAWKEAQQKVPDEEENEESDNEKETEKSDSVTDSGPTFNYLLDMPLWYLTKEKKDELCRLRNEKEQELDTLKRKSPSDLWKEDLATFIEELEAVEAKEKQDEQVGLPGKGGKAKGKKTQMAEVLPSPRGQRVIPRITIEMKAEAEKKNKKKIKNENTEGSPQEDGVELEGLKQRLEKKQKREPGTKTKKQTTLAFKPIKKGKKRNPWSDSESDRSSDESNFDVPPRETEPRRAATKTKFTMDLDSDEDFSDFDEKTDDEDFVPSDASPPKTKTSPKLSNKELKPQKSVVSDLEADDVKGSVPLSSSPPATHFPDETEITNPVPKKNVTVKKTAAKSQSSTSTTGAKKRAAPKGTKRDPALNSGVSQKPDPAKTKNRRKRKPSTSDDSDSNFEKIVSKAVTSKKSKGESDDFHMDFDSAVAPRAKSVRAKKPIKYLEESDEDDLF

| inhibition | Compound |
| --- | --- |
| Active; Compound Showed Weak Effect | Brc1ccc(Cc2nc(NCCN3CCNCC3)c3c4c(sc3n2)CCCC4)cc1 |

Tested on: not listed separately
Assay: Antiproliferative activity against human HCC cells assessed as inhibition of cell growth at 10 uM measured after 48 to 72 hrs by MTT assay relative to control
Assay type: functional
Details: time 48-72 hrs

| Compound | inhibition at 10 µM [%] |
| --- | --- |
| CNc1nc(Cc2ccc(Br)cc2)nc2sc3c(c12)CCCC3 | 1.28 |
| Brc1ccc(Cc2nc(-n3ccnc3)c3c4c(sc3n2)CCCC4)cc1 | 2.03 |
| CCN(CC)c1nc(Cc2ccc(Br)cc2)nc2sc3c(c12)CCCC3 | 1.47 |
| Brc1ccc(Cc2nc(N3CCCC3)c3c4c(sc3n2)CCCC4)cc1 | 1.36 |
| CCCNc1nc(Cc2ccc(Br)cc2)nc2sc3c(c12)CCCC3 | 1.37 |
| Nc1ccccc1CNc1nc(Cc2ccc(Br)cc2)nc2sc3c(c12)CCCC3 | 1.89 |
| NCCCNc1nc(Cc2ccc(Br)cc2)nc2sc3c(c12)CCCC3 | 8.12 |
| Brc1ccc(Cc2nc(NCc3ccccc3)c3c4c(sc3n2)CCCC4)cc1 | 1.79 |
| Fc1cc(CNc2nc(Cc3ccc(Br)cc3)nc3sc4c(c23)CCCC4)cc(F)c1F | 1.57 |
| Brc1ccc(Cc2nc(NCCN3CCNCC3)c3c4c(sc3n2)CCCC4)cc1 | 1.24 |

Tested on: MCF7
Assay: Antiproliferative activity against human MCF7 cells assessed as inhibition of cell growth at 10 uM measured after 48 to 72 hrs by MTT assay relative to control
Assay type: functional
Details: time 48-72 hrs

| Compound | inhibition at 10 µM [%] |
| --- | --- |
| CNc1nc(Cc2ccc(Br)cc2)nc2sc3c(c12)CCCC3 | 18.7 |
| Brc1ccc(Cc2nc(-n3ccnc3)c3c4c(sc3n2)CCCC4)cc1 | 3.19 |
| CCN(CC)c1nc(Cc2ccc(Br)cc2)nc2sc3c(c12)CCCC3 | 15.7 |
| Brc1ccc(Cc2nc(N3CCCC3)c3c4c(sc3n2)CCCC4)cc1 | 19.4 |
| CCCNc1nc(Cc2ccc(Br)cc2)nc2sc3c(c12)CCCC3 | 3.16 |
| Nc1ccccc1CNc1nc(Cc2ccc(Br)cc2)nc2sc3c(c12)CCCC3 | 2.66 |
| NCCCNc1nc(Cc2ccc(Br)cc2)nc2sc3c(c12)CCCC3 | 8.28 |
| Brc1ccc(Cc2nc(NCc3ccccc3)c3c4c(sc3n2)CCCC4)cc1 | 0.55 |
| Fc1cc(CNc2nc(Cc3ccc(Br)cc3)nc3sc4c(c23)CCCC4)cc(F)c1F | 8.28 |
| Brc1ccc(Cc2nc(NCCN3CCNCC3)c3c4c(sc3n2)CCCC4)cc1 | 19.4 |

Target: T3, Prostaglandin G/H synthase 2 (Homo sapiens) (UniProt P35354)
T3 sequence (whole entry): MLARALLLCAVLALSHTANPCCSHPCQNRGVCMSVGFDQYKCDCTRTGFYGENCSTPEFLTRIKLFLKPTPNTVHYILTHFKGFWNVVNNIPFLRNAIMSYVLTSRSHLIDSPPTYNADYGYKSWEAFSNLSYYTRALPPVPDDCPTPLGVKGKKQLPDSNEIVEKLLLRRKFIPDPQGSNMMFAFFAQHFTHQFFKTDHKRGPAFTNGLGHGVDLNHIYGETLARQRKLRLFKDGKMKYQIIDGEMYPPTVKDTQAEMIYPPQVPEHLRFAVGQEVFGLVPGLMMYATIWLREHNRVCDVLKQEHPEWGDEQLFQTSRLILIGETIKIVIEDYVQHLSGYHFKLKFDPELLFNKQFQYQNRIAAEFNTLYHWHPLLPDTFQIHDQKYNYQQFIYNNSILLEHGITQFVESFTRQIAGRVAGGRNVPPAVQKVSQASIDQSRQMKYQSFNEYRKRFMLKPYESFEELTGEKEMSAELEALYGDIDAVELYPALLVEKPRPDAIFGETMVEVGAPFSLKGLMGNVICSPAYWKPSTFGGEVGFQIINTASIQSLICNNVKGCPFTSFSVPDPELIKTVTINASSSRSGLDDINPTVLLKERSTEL
Assay: Inhibition of human recombinant COX-2 at 10 uM relative to control
Details: not given

| inhibition [%] | Compound |
| --- | --- |
| 57.9 | Brc1ccc(Cc2nc(NCCN3CCNCC3)c3c4c(sc3n2)CCCC4)cc1 |

Target: T2, DNA topoisomerase 1 (Homo sapiens)
Assay: Inhibition of human topoisomerase-I extracted from baculovirus expression system assessed as relaxation of supercoiled DNA using SC-DNA as substrate incubated for 30 mins by EtBr staining based agarose gel electrophoresis method
Details: not given

| Compound | inhibition |
| --- | --- |
| Brc1ccc(Cc2nc(NCCN3CCNCC3)c3c4c(sc3n2)CCCC4)cc1 | Active; Compound Showed Significant Inhibition Than Compound 7A |

Tested on: A549
Assay: Antiproliferative activity against human A549 cells assessed as inhibition of cell growth at 10 uM measured after 48 to 72 hrs by MTT assay relative to control
Assay type: functional
Details: time 48-72 hrs

| Compound | inhibition at 10 µM [%] |
| --- | --- |
| CNc1nc(Cc2ccc(Br)cc2)nc2sc3c(c12)CCCC3 | 2.65 |
| Brc1ccc(Cc2nc(-n3ccnc3)c3c4c(sc3n2)CCCC4)cc1 | 2.45 |
| CCN(CC)c1nc(Cc2ccc(Br)cc2)nc2sc3c(c12)CCCC3 | 2.22 |
| Brc1ccc(Cc2nc(N3CCCC3)c3c4c(sc3n2)CCCC4)cc1 | 10.3 |
| CCCNc1nc(Cc2ccc(Br)cc2)nc2sc3c(c12)CCCC3 | 3.63 |
| Nc1ccccc1CNc1nc(Cc2ccc(Br)cc2)nc2sc3c(c12)CCCC3 | 1.33 |
| NCCCNc1nc(Cc2ccc(Br)cc2)nc2sc3c(c12)CCCC3 | 8.86 |
| Brc1ccc(Cc2nc(NCc3ccccc3)c3c4c(sc3n2)CCCC4)cc1 | 3.12 |
| Fc1cc(CNc2nc(Cc3ccc(Br)cc3)nc3sc4c(c23)CCCC4)cc(F)c1F | 6.63 |
| Brc1ccc(Cc2nc(NCCN3CCNCC3)c3c4c(sc3n2)CCCC4)cc1 | 34.2 |

Tested on: T47D
Assay: Antiproliferative activity against human T47D cells assessed as inhibition of cell growth at 10 uM measured after 48 to 72 hrs by MTT assay relative to control
Assay type: functional
Details: time 48-72 hrs

| Compound | inhibition at 10 µM [%] |
| --- | --- |
| CNc1nc(Cc2ccc(Br)cc2)nc2sc3c(c12)CCCC3 | 1.69 |
| Brc1ccc(Cc2nc(-n3ccnc3)c3c4c(sc3n2)CCCC4)cc1 | 1.99 |
| CCN(CC)c1nc(Cc2ccc(Br)cc2)nc2sc3c(c12)CCCC3 | 2.88 |
| Brc1ccc(Cc2nc(N3CCCC3)c3c4c(sc3n2)CCCC4)cc1 | 3.74 |
| CCCNc1nc(Cc2ccc(Br)cc2)nc2sc3c(c12)CCCC3 | 17.3 |
| Nc1ccccc1CNc1nc(Cc2ccc(Br)cc2)nc2sc3c(c12)CCCC3 | 1.79 |
| NCCCNc1nc(Cc2ccc(Br)cc2)nc2sc3c(c12)CCCC3 | 8.24 |
| Brc1ccc(Cc2nc(NCc3ccccc3)c3c4c(sc3n2)CCCC4)cc1 | 11.2 |
| Fc1cc(CNc2nc(Cc3ccc(Br)cc3)nc3sc4c(c23)CCCC4)cc(F)c1F | 3.01 |
| Brc1ccc(Cc2nc(NCCN3CCNCC3)c3c4c(sc3n2)CCCC4)cc1 | 54 |
